According to US20090258097A1, “EXTRACTS AND COMPOUNDS FROM "AGAPANTHUS AFRICANUS" AND THEIR USE AS BIOLOGICAL PLANT PROTECTING AGENTS” (AGRARFORUM AG, priority 2005, published 2009):

Legend:
Sporisorium sorghi = assay: Sorghum covered kernel smut field trial (seed treatment); format: in vivo; conditions: extract 2.0 g/l, Thiram 0.25% (w/w)
Sporisorium cruentum = assay: Sorghum loose kernel smut field trial (seed treatment); format: in vivo; conditions: extract 2.0 g/l, Thiram 0.25% (w/w)
Fusarium oxysporum = assay: In vitro mycelial growth inhibition (agar dilution); format: cell-based; conditions: for concentration showing strong antifungal activity: purified compounds
[1] = pure compounds from the most active P-TLC root fraction, following acidification

Row | Compound | % mean smut incidence (Sporisorium sorghi) [b %] | Yield (ton ha^−1) (Sporisorium sorghi) [ab ton ha^−1] | % mean smut incidence (Sporisorium cruentum) [b %] | Yield (ton ha^−1) (Sporisorium cruentum) [ab ton ha^−1] | % mycelial growth inhibition of F. oxysporum (Fusarium oxysporum; [1]) [%] | concentration showing strong antifungal activity (Fusarium oxysporum) | % mycelial growth inhibition of F. oxysporum (Fusarium oxysporum; pure compound from the most active P-TLC aerial plant part fraction) [%]
1 | CN(C)C(=S)SSC(=S)N(C)C [Thiram] | 0 | 2.6 | 0 | 2.1 |  |  | 
2 | CC(=O)Oc1cc(OC(C)=O)c2c(c1)OC(c1ccc(OC(C)=O)c(OC(C)=O)c1)CC2=O (centres unmarked) [Compound 8, 5,7,3′4′-tetra-O-acetylflavanone] |  |  |  |  | 93 | about 625 μg/ml | 
3 | 3-[{O-β-D-glucopyranosyl-(1″-3′)-α-L-rhamnosyl-(1″-2′)}-β-D-glucopyranosyloxy]agapanthegenin [Compound 1] |  |  |  |  | 100 | approximately 125 μg/ml | 100
4 | CC(=O)Oc1ccc(/C=C/C(=O)c2ccc(OC(C)=O)cc2OC(C)=O)cc1 [Compound 9, trans-4,2′,4′-Tri-O-acetylchalcone] |  |  |  |  | 97 | about 625 μg/ml | 
